Drawing on article PMC5962679 (Frontiers in Cellular and Infection Microbiology, 2018), this text covers IC50 and inhibition for 7 sequences.

Targets include HLA-DRB1*0701 (Homo sapiens, UniProt P01903+P01911, A100R/A102G/A103Q/D57E/D86V/E43K/F76Y/K127E/L162R/M171V/P40G/Q125H/Q99D/R33Q/R42Y/R54Q/S133A/S66F/T210M/V115G/Y107V/Y59L/Y89S); HLA-DRB1*1101 (Homo sapiens, UniProt P01903+P01911, A100R/A169T/A87E/I96F/K41T/L162R/M171V/P40S/Q125H/Q178H/Q39Y/Q99D/R42S/S66Y/T262R/V115G/W38E); HLA-DRB1*1302 (Homo sapiens, UniProt P01903+P01911, A100E/A169T/K41T/L162R/M171V/P40S/Q125H/Q178H/Q39Y/Q99D/R42S/S66N/T262R/V115G/W38E/Y61H).

What all share (assay): biochemical
Holding throughout (type): binding
Conditions in all cases: for inhibition at 250 µM: 24 h, read-out: Binding percentage

The target of another test is T1, HLA-DRB1*0401 (Homo sapiens, UniProt P01903+P01911, A100K/A169T/F76Y/I96L/K127E/L162R/M171V/N62H/P40V/Q125Y/R42H/S133A/S149N/S66Y/V115G/V209L/W38E).
T1 construct: homozygous lymphoblastoid B-cell lines (International Histocompatibility Working Group); host or cells: human HLA-DRB1*0401 homozygous lymphoblastoid B-cell line

The IC50 is the concentration at which inhibition is half-maximal. A high value points to weaker potency in that assay.

Ends that are not written are not given here.

Sequence of HLA-DRB1*1302 (P01903 26-254 limits assumed, other chains not shown): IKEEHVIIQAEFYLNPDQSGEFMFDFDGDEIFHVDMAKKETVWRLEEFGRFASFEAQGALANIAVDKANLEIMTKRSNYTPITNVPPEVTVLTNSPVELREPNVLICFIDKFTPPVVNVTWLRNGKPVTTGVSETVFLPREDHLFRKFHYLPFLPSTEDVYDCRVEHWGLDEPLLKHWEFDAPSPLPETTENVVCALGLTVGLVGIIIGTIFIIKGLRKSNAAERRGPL
Sequence of HLA-DRB1*1101 (P01903 26-254 limits assumed, other chains not shown): as above

On to DKSFISEANSFRNEE [compound 39149], for which the IC50 at HLA-DRB1*0401 was 26.3 µM. In addition, the inhibition at 250 µM came to 85.8% at HLA-DRB1*0401, 42.8% at HLA-DRB1*0701, 36.5% at HLA-DRB1*1101 and 33.5% on HLA-DRB1*1302.

With KLKYIFKRRKTMKKK [compound 39151], the values for the IC50 against HLA-DRB1*0401 and at HLA-DRB1*1101 were 40 µM and 51.1 µM, respectively. Besides, the inhibition at 250 µM on HLA-DRB1*0401 was 65.3%; on HLA-DRB1*0701, 36%; on HLA-DRB1*1101 it was 78.5%; at HLA-DRB1*1302, 13.1%.

For the sequence LKPFYSLETMLMANS [compound 39147], the IC50 amounted to 4.6 µM on HLA-DRB1*0401, 26 µM at HLA-DRB1*0701, 23 µM against HLA-DRB1*1101 and 79 µM at HLA-DRB1*1302. For the same sequence, the inhibition at 250 µM on HLA-DRB1*0401 amounted to 92.6%; at HLA-DRB1*0701 it was 83.2%; on HLA-DRB1*1101 it was 79.3%; on HLA-DRB1*1302 it was 63%.

Take NVRKFFLNDVSSIRH [compound 39148]: the IC50 at HLA-DRB1*0401 was determined as 11.9 µM; against HLA-DRB1*0701, 39.7 µM; against HLA-DRB1*1101 it was 83.4 µM; at HLA-DRB1*1302, 7.4 µM. Moreover, the inhibition at 250 µM on HLA-DRB1*0401 was 83%; on HLA-DRB1*0701, 79.9%; at HLA-DRB1*1101 it was 73.8%; on HLA-DRB1*1302 it was 94.2%.

Turning to NYEIYIASSSNIYLM [compound 39046], the IC50 came to 28.4 µM at HLA-DRB1*0401, 23.3 µM at HLA-DRB1*0701, 120 µM at HLA-DRB1*1101 and 29.6 µM against HLA-DRB1*1302. Besides, the inhibition at 250 µM at HLA-DRB1*0401 came to 91.8%; at HLA-DRB1*0701, 91.5%; on HLA-DRB1*1101, 82.9%; on HLA-DRB1*1302, 92.8%.

For QTAFRKFFKKIISLG [compound 39150], the results for the IC50 on HLA-DRB1*0401, at HLA-DRB1*0701 and against HLA-DRB1*1101 were 33.7 µM, 51.8 µM and 83.4 µM, respectively. Further, the inhibition at 250 µM at HLA-DRB1*0401 stood at 83.6%; at HLA-DRB1*0701, 67.2%; at HLA-DRB1*1101, 87.6%; at HLA-DRB1*1302, 7.7%.

On HLA-DRB1*0401, TPIIVKYDNTHAKNR [compound 39048] returned an IC50 of 11.9 µM. In addition, the inhibition at 250 µM amounted to 90.7% at HLA-DRB1*0401, 10.5% at HLA-DRB1*0701, 16.8% on HLA-DRB1*1101 and 3.3% at HLA-DRB1*1302.
